Where two headings read alike, the source gives them in different places.
Target: β2-adrenoceptor (Homo sapiens, UniProt P07550)
Test: β2-adrenoceptor binding potency, classical filtration binding assay
Excerpt: Accordingly the invention also provides a compound of formula I in free or salt form for use as a pharmaceutical.

β2-adrenoceptor, sequence (P07550 whole entry, species assumed): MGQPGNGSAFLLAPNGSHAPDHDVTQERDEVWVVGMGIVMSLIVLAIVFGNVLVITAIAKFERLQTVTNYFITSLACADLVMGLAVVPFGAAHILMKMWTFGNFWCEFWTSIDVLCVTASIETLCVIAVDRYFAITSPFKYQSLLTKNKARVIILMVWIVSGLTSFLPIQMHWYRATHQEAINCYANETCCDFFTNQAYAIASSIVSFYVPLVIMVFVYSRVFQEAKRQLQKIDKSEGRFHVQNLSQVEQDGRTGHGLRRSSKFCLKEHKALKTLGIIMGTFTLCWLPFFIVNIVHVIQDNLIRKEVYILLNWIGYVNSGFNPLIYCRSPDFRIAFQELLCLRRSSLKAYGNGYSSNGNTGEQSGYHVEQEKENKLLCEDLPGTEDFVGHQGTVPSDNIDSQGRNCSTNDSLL

Row | SMILES | Ki (read-out: Ki (β2)) [nM] | Ki [nM]
1 | O=c1[nH]c2c(O)ccc(C(O)CNCCc3ccc(OCCCCc4ccccc4)cc3)c2s1 (centres unmarked) [Example 1, 4-hydroxy7-(1-hydroxy-2-{2-[4-(4-phenyl-butoxy)-phenyl]-ethylamino}-ethyl)-3H-benzothiazol-2-one] | 0.3 | –
2 | COc1ccc(C[C@@H](C)NCC(O)c2ccc(O)c3[nH]c(=O)sc23)cc1 (some centres unmarked) [Example 3] | – | 1.6

Source: US20060106075A1, “Benzothiazole derivatives having beta-2-adrenoreceptor agonist activity” (priority 2002, published 2006)
